Data published in US10961231B2, “NTCP inhibitors” (National Institute of Biological Sciences, Beijing, priority 2018, dated 2021).

Molecular target: T1, NTCP (Homo sapiens, UniProt Q14973)
T1 sequence (Q14973 1-349): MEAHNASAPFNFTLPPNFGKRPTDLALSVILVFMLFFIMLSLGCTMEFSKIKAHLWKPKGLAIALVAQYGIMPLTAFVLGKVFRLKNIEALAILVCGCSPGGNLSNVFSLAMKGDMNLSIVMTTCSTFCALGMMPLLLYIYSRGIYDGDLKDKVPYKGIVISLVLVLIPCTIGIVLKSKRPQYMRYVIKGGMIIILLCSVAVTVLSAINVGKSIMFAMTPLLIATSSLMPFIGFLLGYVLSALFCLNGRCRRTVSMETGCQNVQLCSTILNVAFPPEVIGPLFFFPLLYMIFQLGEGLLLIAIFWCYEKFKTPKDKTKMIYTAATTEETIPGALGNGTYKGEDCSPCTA
Experiment: [3H]-TCA uptake assay (NTCP inhibition)
Assay type: cell-based
Method in brief: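 PTH and HepG2-NTCP cells kept 24 h in PMM to induce NTCP, then exposed 2 h to test compounds or DMSO. Uptake of 1 μM [3H]-taurocholate in Na+ Ringer's buffer (145 mM Na) ran 15 min at 37° C. Cells washed, lysed in 1% Triton X-100, and radioactivity counted by liquid scintillation.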

[1] = given as a range, assay not given
[2] = IC50, given as a range, marked * (asterisk not explained)

Row | SMILES | IC50 [1] | IC50 [2] | other results
1 | CCC1NC(=O)C(C2OC(SCc3cc(Cl)cc(Cl)c3)CC2C)N(C)C(=O)C(C(C)C)N(C)C(=O)C(CC(C)C)N(C)C(=O)C(CC(C)C)N(C)C(=O)C(C)NC(=O)C(C)NC(=O)C(CC(C)C)N(C)C(=O)C(C(C)C)NC(=O)C(CC(C)C)N(C)C(=O)CN(C)C1=O [Compound 91A-s, [2-((2R,3R)-5-(3,5-dichlorobenzylthio)-3-methyltetrahydrofuran-2-yl)-2-(methylamino)acetic acid]^1-cyclosporin A] | 1 to 1000 nM | – | –
2 | CCC1NC(=O)C(C2OC(Sc3cc(OC)cc(OCc4ccccc4)c3)CC2C)N(C)C(=O)C(C(C)C)N(C)C(=O)C(CC(C)C)N(C)C(=O)C(CC(C)C)N(C)C(=O)C(C)NC(=O)C(C)NC(=O)C(CC(C)C)N(C)C(=O)C(C(C)C)NC(=O)C(CC(C)C)N(C)C(=O)CN(C)C1=O (stereo not shown) [Compound 65] | – | – | IC50 (given as a range, marked * (asterisk not explained)): 1000 to 100000 nM
3 | CCC1NC(=O)C(C2OC(Oc3ccc(Cl)c(OCc4ccccc4)c3)CC2C)N(C)C(=O)C(C(C)C)N(C)C(=O)C(CC(C)C)N(C)C(=O)C(CC(C)C)N(C)C(=O)C(C)NC(=O)C(C)NC(=O)C(CC(C)C)N(C)C(=O)C(C(C)C)NC(=O)C(CC(C)C)N(C)C(=O)CN(C)C1=O (stereo not shown) [Compound 44A-o] | – | 1000 to 100000 nM | –
4 | CCC1NC(=O)C(C2OC(SCc3ccccc3OC)CC2C)N(C)C(=O)C(C(C)C)N(C)C(=O)C(CC(C)C)N(C)C(=O)C(CC(C)C)N(C)C(=O)C(C)NC(=O)C(C)NC(=O)C(CC(C)C)N(C)C(=O)C(C(C)C)NC(=O)C(CC(C)C)N(C)C(=O)CN(C)C1=O (stereo not shown) [Compound 82A-s] | – | 1000 to 100000 nM | –
5 | CCC1NC(=O)C(C2OC(Sc3ccc(OC)c(OC)c3)CC2C)N(C)C(=O)C(C(C)C)N(C)C(=O)C(CC(C)C)N(C)C(=O)C(CC(C)C)N(C)C(=O)C(C)NC(=O)C(C)NC(=O)C(CC(C)C)N(C)C(=O)C(C(C)C)NC(=O)C(CC(C)C)N(C)C(=O)CN(C)C1=O [Compound 37A, [2-((2R,3R)-5-(3,4-dimethoxyphenylthio)-3-methyltetrahydrofuran-2-yl)-2-(methylamino)acetic acid]^1-cyclosporin A] | 1 to 1000 nM | – | –
6 | CCC1NC(=O)C(C2OC(Sc3cc(Cl)cc(OCc4ccccc4)c3)CC2C)N(C)C(=O)C(C(C)C)N(C)C(=O)C(CC(C)C)N(C)C(=O)C(CC(C)C)N(C)C(=O)C(C)NC(=O)C(C)NC(=O)C(CC(C)C)N(C)C(=O)C(C(C)C)NC(=O)C(CC(C)C)N(C)C(=O)CN(C)C1=O (stereo not shown) [Compound 63] | – | 1000 to 100000 nM | –
7 | CCCOc1cccc(SC2CC(C)C(C3C(=O)NC(CC)C(=O)N(C)CC(=O)N(C)C(CC(C)C)C(=O)NC(C(C)C)C(=O)N(C)C(CC(C)C)C(=O)NC(C)C(=O)NC(C)C(=O)N(C)C(CC(C)C)C(=O)N(C)C(CC(C)C)C(=O)N(C)C(C(C)C)C(=O)N3C)O2)c1 [Compound 31A, [2-((2R,3R)-3-methyl-5-(3-propoxyphenylthio)tetrahydrofuran-2-yl)-2-(methylamino)acetic acid]^1-cyclosporin A] | 1 to 1000 nM | – | –
8 | CCC1NC(=O)C(C2OC(Sc3ccc(C)cc3)CC2C)N(C)C(=O)C(C(C)C)N(C)C(=O)C(CC(C)C)N(C)C(=O)C(CC(C)C)N(C)C(=O)C(C)NC(=O)C(C)NC(=O)C(CC(C)C)N(C)C(=O)C(C(C)C)NC(=O)C(CC(C)C)N(C)C(=O)CN(C)C1=O [Compound 2A, [2-((2R,3R)-3-methyl-5-(p-tolylthio)tetrahydrofuran-2-yl)-2-(methylamino)acetic acid]^1-cyclosporin A] | 1 to 1000 nM | – | –
9 | CCC1NC(=O)C(C2OC(OC(C)c3ccccc3)CC2C)N(C)C(=O)C(C(C)C)N(C)C(=O)C(CC(C)C)N(C)C(=O)C(CC(C)C)N(C)C(=O)C(C)NC(=O)C(C)NC(=O)C(CC(C)C)N(C)C(=O)C(C(C)C)NC(=O)C(CC(C)C)N(C)C(=O)CN(C)C1=O (single isomer, unassigned) [Compound 78B] | 1 to 1000 nM | – | –
10 | CCC1NC(=O)C(C2OC(Sc3cc(OC)cc(OC)c3)CC2C)N(C)C(=O)C(C(C)C)N(C)C(=O)C(CC(C)C)N(C)C(=O)C(CC(C)C)N(C)C(=O)C(C)NC(=O)C(C)NC(=O)C(CC(C)C)N(C)C(=O)C(C(C)C)NC(=O)C(CC(C)C)N(C)C(=O)CN(C)C1=O [Compound 38A, [2-((2R,3R)-5-(3,5-dimethoxyphenylthio)-3-methyltetrahydrofuran-2-yl)-2-(methylamino)acetic acid]^1-cyclosporin A] | 1 to 1000 nM | – | –
11 | CCC1NC(=O)C(C2OC(Sc3cccc(NC)c3)CC2C)N(C)C(=O)C(C(C)C)N(C)C(=O)C(CC(C)C)N(C)C(=O)C(CC(C)C)N(C)C(=O)C(C)NC(=O)C(C)NC(=O)C(CC(C)C)N(C)C(=O)C(C(C)C)NC(=O)C(CC(C)C)N(C)C(=O)CN(C)C1=O [Compound 47A, [2-((2R,3R)-3-methyl-5-(3-(methylamino)phenylthio)tetrahydrofuran-2-yl)-2-(methylamino)acetic acid]^1-cyclosporin A] | 1 to 1000 nM | – | –
12 | CCC1NC(=O)C(C2OC(Oc3ccc(OS(C)(=O)=O)cc3)CC2C)N(C)C(=O)C(C(C)C)N(C)C(=O)C(CC(C)C)N(C)C(=O)C(CC(C)C)N(C)C(=O)C(C)NC(=O)C(C)NC(=O)C(CC(C)C)N(C)C(=O)C(C(C)C)NC(=O)C(CC(C)C)N(C)C(=O)CN(C)C1=O (stereo not shown) [Compound 5A-o] | – | 1000 to 100000 nM | –
13 | CCC1NC(=O)C(C2OC(SCc3cccc(N4CCOCC4)c3)CC2C)N(C)C(=O)C(C(C)C)N(C)C(=O)C(CC(C)C)N(C)C(=O)C(CC(C)C)N(C)C(=O)C(C)NC(=O)C(C)NC(=O)C(CC(C)C)N(C)C(=O)C(C(C)C)NC(=O)C(CC(C)C)N(C)C(=O)CN(C)C1=O (stereo not shown) [Compound 95-s] | – | 1000 to 100000 nM | –
14 | CCC1NC(=O)C(C2OC(SC(C)c3ccc(Cl)cc3)CC2C)N(C)C(=O)C(C(C)C)N(C)C(=O)C(CC(C)C)N(C)C(=O)C(CC(C)C)N(C)C(=O)C(C)NC(=O)C(C)NC(=O)C(CC(C)C)N(C)C(=O)C(C(C)C)NC(=O)C(CC(C)C)N(C)C(=O)CN(C)C1=O (stereo not shown) [Compound 102-s] | – | 1000 to 100000 nM | –
15 | CCC1NC(=O)C(C2OC(OC(C)c3cc(Cl)cc(Cl)c3)CC2C)N(C)C(=O)C(C(C)C)N(C)C(=O)C(CC(C)C)N(C)C(=O)C(CC(C)C)N(C)C(=O)C(C)NC(=O)C(C)NC(=O)C(CC(C)C)N(C)C(=O)C(C(C)C)NC(=O)C(CC(C)C)N(C)C(=O)CN(C)C1=O [Compound 92A, [2-((2R,3R)-5-((S)-1-(3,5-dichlorophenyl)ethoxy)-3-methyltetrahydrofuran-2-yl)-2-(methylamino)acetic acid]^1-cyclosporin A] | 1 to 1000 nM | – | –
16 | CCC1NC(=O)C(C2OC(Oc3ccc(OC)cc3)CC2C)N(C)C(=O)C(C(C)C)N(C)C(=O)C(CC(C)C)N(C)C(=O)C(CC(C)C)N(C)C(=O)C(C)NC(=O)C(C)NC(=O)C(CC(C)C)N(C)C(=O)C(C(C)C)NC(=O)C(CC(C)C)N(C)C(=O)CN(C)C1=O (stereo not shown) [Compound 26A-o] | – | 1000 to 100000 nM | –
17 | CCC1NC(=O)C(C2OC(Oc3cccc(NC)c3)CC2C)N(C)C(=O)C(C(C)C)N(C)C(=O)C(CC(C)C)N(C)C(=O)C(CC(C)C)N(C)C(=O)C(C)NC(=O)C(C)NC(=O)C(CC(C)C)N(C)C(=O)C(C(C)C)NC(=O)C(CC(C)C)N(C)C(=O)CN(C)C1=O (stereo not shown) [Compound 47A-o] | – | 1000 to 100000 nM | –
18 | CCCCc1ccc(OC2CC(C)C(C3C(=O)NC(CC)C(=O)N(C)CC(=O)N(C)C(CC(C)C)C(=O)NC(C(C)C)C(=O)N(C)C(CC(C)C)C(=O)NC(C)C(=O)NC(C)C(=O)N(C)C(CC(C)C)C(=O)N(C)C(CC(C)C)C(=O)N(C)C(C(C)C)C(=O)N3C)O2)cc1 (stereo not shown) [Compound 8A-o] | – | 1000 to 100000 nM | –
19 | CCC1NC(=O)C(C2OC(SCc3ccc(OC)cc3)CC2C)N(C)C(=O)C(C(C)C)N(C)C(=O)C(CC(C)C)N(C)C(=O)C(CC(C)C)N(C)C(=O)C(C)NC(=O)C(C)NC(=O)C(CC(C)C)N(C)C(=O)C(C(C)C)NC(=O)C(CC(C)C)N(C)C(=O)CN(C)C1=O (stereo not shown) [Compound 83A-s] | – | 1000 to 100000 nM | –
